Measurements taken from PubChem BioAssay (NCI).
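Briefly, cells in 96-well plates were exposed to five compound concentrations for 48 h, and endpoints were estimated by linear interpolation. TGI is the concentration that stops growth completely.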

Each molecule was assayed on HOP-92 NSCLC (assay: growth of human tumour cells (NCI), 48 h).

For c1ccc(C(C2=Nc3cccc4cccc(c34)N2)c2ccccc2)cc1, the TGI was 44 µM.

These molecules were tested on HS 578T breast (assay: growth of human tumour cells (NCI), 48 h).

CN(Cc1cnc2nc(N)nc(N)c2n1)c1ccc(C(=O)NCCS(=O)(=O)O)cc1 and NC(=O)c1ccc(C(=O)Nc2ccc([As](=O)(O)O)cc2)cc1 cannot be ordered by TGI: > 100 µM for the first, > 100 µM for the second.

Going from O=C1NC(N/N=C/c2ccccc2)=N/C1=C\c1ccco1 to O=C1NC(N/N=C/C(O)C(O)C(O)C(O)CO)=N/C1=C\c1ccco1 (centres undefined), the TGI rises from 78.3 µM to > 100 µM.

First: O=C(C1OC1c1ccc(Cl)cc1)C12CC3CC(CC(C3)C1)C2 (centres undefined)
Second: C=C(C)[C@@H]1CCC2=C[C@@H](OC2=O)[C@@H](C(=C)C)C2=CC(C(=O)O)=C(C1)O2
The TGI of the first is lower: 73.9 µM for the first, > 100 µM for the second.

First: O=[N+]([O-])c1cccc2nc3ccccc3c(NCCCCNc3c4ccccc4nc4cccc([N+](=O)[O-])c34)c12
Second: c1ccc(C(C2=Nc3cccc4cccc(c34)N2)c2ccccc2)cc1
The TGI of the first is 87-fold lower: 0.935 µM for the first, 81.8 µM for the second.

Going from CC1OC(OC2C(O[C@H]3CC[C@@H]4C(=CC[C@@H]5[C@@]4(C)C(=O)C[C@]4(C)[C@@H]([C@H](C)CC[C@@H](O)C(C)(C)O)CC[C@@]54C)C3(C)C)OC(CO)C(O)C2O)C(O)C(O)C1O (some centres undefined) to CC1=CC(=O)[C@@H](O)[C@]2(C)[C@H]3[C@@]4(O)OC[C@]35[C@H]([C@@H](C)[C@H]4O)[C@@H](OC(=O)C(C)(C)CO)C(=O)O[C@@H]5C[C@@H]12, the TGI falls from > 100 µM to 0.897 µM.

These molecules were tested on CCRF-CEM leukemia (assay: growth of human tumour cells (NCI), 48 h).

O=C1NC(N/N=C/c2ccccc2)=N/C1=C\c1ccco1 and O=C1NC(N/N=C/C(O)C(O)C(O)C(O)CO)=N/C1=C\c1ccco1 (centres undefined) cannot be ordered by TGI: > 100 µM for the first, > 100 µM for the second.

Going from O=C(C1OC1c1ccc(Cl)cc1)C12CC3CC(CC(C3)C1)C2 (centres undefined) to C=C(C)[C@@H]1CCC2=C[C@@H](OC2=O)[C@@H](C(=C)C)C2=CC(C(=O)O)=C(C1)O2, the TGI rises from 52.3 µM to > 100 µM.

First: O=[N+]([O-])c1cccc2nc3ccccc3c(NCCCCNc3c4ccccc4nc4cccc([N+](=O)[O-])c34)c12
Second: c1ccc(C(C2=Nc3cccc4cccc(c34)N2)c2ccccc2)cc1
The TGI of the first is lower: 0.0892 µM for the first, > 100 µM for the second.

NC(=O)c1ccc(C(=O)Nc2ccc([As](=O)(O)O)cc2)cc1 and CC1OC(OC2C(O[C@H]3CC[C@@H]4C(=CC[C@@H]5[C@@]4(C)C(=O)C[C@]4(C)[C@@H]([C@H](C)CC[C@@H](O)C(C)(C)O)CC[C@@]54C)C3(C)C)OC(CO)C(O)C2O)C(O)C(O)C1O (some centres undefined) cannot be ordered by TGI: > 100 µM for the first, > 100 µM for the second.

The molecules below were run on UACC-62 melanoma (assay: growth of human tumour cells (NCI), 48 h).

CN(Cc1cnc2nc(N)nc(N)c2n1)c1ccc(C(=O)NCCS(=O)(=O)O)cc1 and NC(=O)c1ccc(C(=O)Nc2ccc([As](=O)(O)O)cc2)cc1 cannot be ordered by TGI: > 100 µM for the first, > 100 µM for the second.

O=C1NC(N/N=C/c2ccccc2)=N/C1=C\c1ccco1 and O=C1NC(N/N=C/C(O)C(O)C(O)C(O)CO)=N/C1=C\c1ccco1 (centres undefined) cannot be ordered by TGI: > 100 µM for the first, > 100 µM for the second.

First: O=C(C1OC1c1ccc(Cl)cc1)C12CC3CC(CC(C3)C1)C2 (centres undefined)
Second: C=C(C)[C@@H]1CCC2=C[C@@H](OC2=O)[C@@H](C(=C)C)C2=CC(C(=O)O)=C(C1)O2
The TGI of the first is lower: 45.1 µM for the first, > 100 µM for the second.

First: O=[N+]([O-])c1cccc2nc3ccccc3c(NCCCCNc3c4ccccc4nc4cccc([N+](=O)[O-])c34)c12
Second: c1ccc(C(C2=Nc3cccc4cccc(c34)N2)c2ccccc2)cc1
The TGI of the first is 110-fold lower: 0.302 µM for the first, 32.8 µM for the second.

Going from CC1OC(OC2C(O[C@H]3CC[C@@H]4C(=CC[C@@H]5[C@@]4(C)C(=O)C[C@]4(C)[C@@H]([C@H](C)CC[C@@H](O)C(C)(C)O)CC[C@@]54C)C3(C)C)OC(CO)C(O)C2O)C(O)C(O)C1O (some centres undefined) to CC1=CC(=O)[C@@H](O)[C@]2(C)[C@H]3[C@@]4(O)OC[C@]35[C@H]([C@@H](C)[C@H]4O)[C@@H](OC(=O)C(C)(C)CO)C(=O)O[C@@H]5C[C@@H]12, the TGI falls from > 100 µM to 0.86 µM.

What follows are molecules tested on NCI-H23 lung (assay: growth of human tumour cells (NCI), 48 h).

CN(Cc1cnc2nc(N)nc(N)c2n1)c1ccc(C(=O)NCCS(=O)(=O)O)cc1 and NC(=O)c1ccc(C(=O)Nc2ccc([As](=O)(O)O)cc2)cc1 cannot be ordered by TGI: > 100 µM for the first, > 100 µM for the second.

First: O=C1NC(N/N=C/c2ccccc2)=N/C1=C\c1ccco1
Second: O=C1NC(N/N=C/C(O)C(O)C(O)C(O)CO)=N/C1=C\c1ccco1 (centres undefined)
The TGI of the first is lower: 95.6 µM for the first, > 100 µM for the second.

First: O=C(C1OC1c1ccc(Cl)cc1)C12CC3CC(CC(C3)C1)C2 (centres undefined)
Second: C=C(C)[C@@H]1CCC2=C[C@@H](OC2=O)[C@@H](C(=C)C)C2=CC(C(=O)O)=C(C1)O2
The TGI of the first is lower: 38.4 µM for the first, > 100 µM for the second.

Compared with O=[N+]([O-])c1cccc2nc3ccccc3c(NCCCCNc3c4ccccc4nc4cccc([N+](=O)[O-])c34)c12, c1ccc(C(C2=Nc3cccc4cccc(c34)N2)c2ccccc2)cc1 is higher in TGI: 0.159 µM for the first, > 100 µM for the second.

Compared with CC1OC(OC2C(O[C@H]3CC[C@@H]4C(=CC[C@@H]5[C@@]4(C)C(=O)C[C@]4(C)[C@@H]([C@H](C)CC[C@@H](O)C(C)(C)O)CC[C@@]54C)C3(C)C)OC(CO)C(O)C2O)C(O)C(O)C1O (some centres undefined), CC1=CC(=O)[C@@H](O)[C@]2(C)[C@H]3[C@@]4(O)OC[C@]35[C@H]([C@@H](C)[C@H]4O)[C@@H](OC(=O)C(C)(C)CO)C(=O)O[C@@H]5C[C@@H]12 is lower in TGI: > 100 µM for the first, 0.0869 µM for the second.

What follows are molecules tested on NCI-H522 lung (assay: growth of human tumour cells (NCI), 48 h).

CN(Cc1cnc2nc(N)nc(N)c2n1)c1ccc(C(=O)NCCS(=O)(=O)O)cc1 and NC(=O)c1ccc(C(=O)Nc2ccc([As](=O)(O)O)cc2)cc1 cannot be ordered by TGI: > 100 µM for the first, > 100 µM for the second.

Compared with O=C1NC(N/N=C/c2ccccc2)=N/C1=C\c1ccco1, O=[N+]([O-])c1cccc2nc3ccccc3c(NCCCCNc3c4ccccc4nc4cccc([N+](=O)[O-])c34)c12 is 1500-fold lower in TGI: 95.2 µM for the first, 0.0639 µM for the second.

With O=C(C1OC1c1ccc(Cl)cc1)C12CC3CC(CC(C3)C1)C2 (centres undefined) the TGI was 42.5 µM.
